One may read the inhibition in vivo as the change of the read-out against control, counted positive when it falls. By IC50 is commonly meant the concentration that inhibits the measured activity by half.

For assay [1], the system named is Rattus norvegicus. As to the kind of experiment: Antiinflammatory activity in Wistar albino rat assessed as inhibition of CFA-induced paw edema at 10 mg/kg, po preadministered for 24 hrs followed by CFA administration and measured after 16 days. In kind it is functional. Particulars: 408 h, time 17 day.
The test system of assay [2] is Rattus norvegicus. The assay can be described thus: Antiinflammatory activity in Wistar albino rat assessed as inhibition of carrageenan-induced paw edema at 20 mg/kg, po preadministered for 1 hrs followed by carrageenan administration and measured upto 10 hrs by Plethysmometer. The class given is functional. Particulars: time <= 11 hrs. In general terms: Carrageenan injected into the paw causes an acute inflammation.

In assay [3] the test system is THP-1. As to the kind of experiment: Antiinflammatory activity in human THP-1 cells assessed as inhibition of IL-6 production. In kind it is functional.
Assay [4] concerns THP-1. As to the kind of experiment: Antiinflammatory activity in human THP-1 cells assessed as inhibition of TNF-alpha production. In kind it is functional.
For assay [5], the system named is HT-1080. The assay can be described thus: Antiinflammatory activity in human HT-1080 cells assessed as inhibition of TNF-alpha production. In kind it is functional.
The subject of assay [6] is HT-1080. The assay can be described thus: Antiinflammatory activity in human HT-1080 cells assessed as inhibition of IL-6 production. In kind it is functional.
The subject of assay [7] is Mus musculus. The assay can be described thus: Antiinflammatory activity in Swiss mouse assessed as reduction in croton oil-induced ear edema administered via surface of left ear measured after 6 hrs relative to control. The conditions noted are these: route au. In kind it is functional. More on the design: scale not given: the % may be the effect or the level left.
For assay [8], the system named is Mus musculus. As to the kind of experiment: Antiinflammatory activity in croton oil-induced Swiss mouse model of ear edema assessed as reduction in MPO activity administered via surface of left ear measured after 6 hrs relative to control. The class given is functional. The arrangement: scale not given: the % may be the effect or the level left. Particulars: route au.

Assay [9] deals with T1, Prostaglandin G/H synthase 2 (Homo sapiens, UniProt P35354).
T1 sequence (P35354 whole entry): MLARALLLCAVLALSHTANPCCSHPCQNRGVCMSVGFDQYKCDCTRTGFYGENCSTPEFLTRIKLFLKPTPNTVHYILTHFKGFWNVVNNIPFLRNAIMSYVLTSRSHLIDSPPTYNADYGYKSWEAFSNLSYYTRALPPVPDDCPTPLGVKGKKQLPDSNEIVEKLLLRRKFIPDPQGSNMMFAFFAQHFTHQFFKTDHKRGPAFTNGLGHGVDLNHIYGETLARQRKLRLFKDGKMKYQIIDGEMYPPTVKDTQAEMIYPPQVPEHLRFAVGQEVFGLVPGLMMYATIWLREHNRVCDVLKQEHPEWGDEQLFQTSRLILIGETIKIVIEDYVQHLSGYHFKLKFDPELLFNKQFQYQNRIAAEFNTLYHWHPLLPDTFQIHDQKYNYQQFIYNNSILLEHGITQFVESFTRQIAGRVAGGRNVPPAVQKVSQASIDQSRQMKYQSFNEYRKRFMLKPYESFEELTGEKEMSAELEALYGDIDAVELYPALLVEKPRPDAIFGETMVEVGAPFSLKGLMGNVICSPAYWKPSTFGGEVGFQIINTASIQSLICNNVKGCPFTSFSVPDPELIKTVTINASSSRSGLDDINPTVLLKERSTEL
The assay can be described thus: Inhibition of human recombinant COX-2 expressed in baculovirus infected Sf21 cells using arachidonic acid as substrate by spectrophotometric analysis.

Assay [10] is described as follows: Inhibition of goat 5-LOX by spectrophotometric analysis. The arrangement: species or system Capra hircus.
Assay [11] in a line: Inhibition of TNF-alpha production in LPS-induced human U-937 cells preincubated with compound for 30 mins followed by LPS induction and measured after 4 hrs. In kind it is functional, cell-based.
The next assay concerns RAW264.7. The assay can be described thus: Inhibition of NO production in LPS-stimulated mouse RAW264.7 cells preincubated with compound for 4 hrs followed by LPS stimulation and measured after 24 hrs by Griess reagent-based assay. In kind it is functional, cell-based. On the technique in general: Griess reagent forms a coloured azo dye with nitrite.

Molecules are shown by their SMILES. Converted amounts (≈) assume the structure as drawn.

For `O=c1c2ccccc2nc2n1CCC2O` (configuration not stated), the inhibition in vivo at 10 mg/kg in the assay with Rattus norvegicus [1] came out at 63.9%. With `OC1CCN2Cc3ccccc3N=C12` (configuration not stated), the inhibition in vivo at 20 mg/kg in the assay with Rattus norvegicus [2] turned out to be 59.5%. In the case of `CC(=O)O[C@H]1CN(C)CC[C@H]1c1c(O)cc(O)c2c(=O)cc(C)oc12`, the “inhibition (INH)” value stood at 20.5% with THP-1 [3] and 81.1% with THP-1 [4]. Turning to `Cc1cc(=O)c2c(O)c([C@H]3CCN(C)C[C@H]3O)c(O)cc2o1`, the “inhibition (INH)” value was 47% in the assay with HT-1080 [5] and 83% in the assay with HT-1080 [6]. Consider `CN1C[C@H](O)C[C@H]1C(=O)O`, for which the results for the Activity in the assay on Mus musculus [7] and with Mus musculus [8] were 26.8% and 59.7%, respectively. Take `CC[C@H](CCCC[C@@H]1/C=C\CN/C=C\C1)C[C@@H]1CCC(=O)ON1`: the IC50 in assay [9] is 2500 µM; in assay [10], 900 µg/mL (≈ 2810 µM).

Regarding `CCCCCCCCCC(=O)C/C(=C\c1cc(CCC)ncc1C(=O)OC)C(C)=O`, in assay [11], the IC50 amounted to 1.52 µM. On to `COc1cc(/C=C/CO)ccc1O[C@H]1CCCNC1=O`, for which the IC50 in the assay on RAW264.7 was 18.1 µM.

Source of the values: ChEMBL document CHEMBL5226289, “Discovery of natural anti-inflammatory alkaloids: Potential leads for the drug discovery for the treatment of inflammation” (Eur J Med Chem, 2021).
